Results on four compounds are retold here after patent US20130309380A1, “METHODS FOR PRESERVING FRESH PRODUCE” (NatureSeal, Inc., priority 2003, published 2013).

For assay [1], the system named is Bramley apples. Nature of the assay: Water released by sliced Bramley apples. The protocol:
(§1) The firmness of the produce in Example 11a were evaluated by bending produce samples. Appearance was evaluated by visual inspection. The moisture was evaluated by measuring the amount of water the produce released.
(§2) Whole Bramley apples free from blemishes or bruises, were rinsed with water, sanitized with a sodium hypochlorite solution having 100 parts per million available chlorine, for two minutes, then peeled, cored, and sliced. The sliced apples were dipped into a fresh produce preservative solution that contained 5.12% strontium ascorbate; the fresh produce preservative solution contained 4.12% ascorbic acid and 1.79% […], for about 30 to 60 seconds. The apples were then drained in a colander for one minute. The apple slices and the colander were placed in 500 micron plastic bags from SunSet Packaging, stored at 4° C. and evaluated several times over a 15 day period. Water which collected in the plastic bag was removed and weighed.
For comparison, similarly prepared apple slices were placed in one of several solutions that contained either: 4.3% ascorbic acid and 1.13% hydrated MgCO3, specifically 4MgCO3.Mg(OH)25H2O or a 5.0% w/w aqueous solution of calcium ascorbate dihydrate, having a pH of 7.2; or a 5.3% w/w solution, of 4.12% ascorbic acid and 1.17% calcium carbonate,; or 6% ascorbic acid having a pH of 2.3; or 48 g ascorbic acid, 48 g citric acid, 16 g CaCl2 and 48 g NaCl in 800 g water, with a pH of 1.2; or 6% w/w citric acid and 6% w/w ascorbic acid; or 4.64% sodium ascorbate having 4.13% ascorbic acid and 1.18% NaCo3. […]

Assay [2] relates to Bramley apples. Nature of the assay: Evaluation of sliced Bramley apples: appearance by visual inspection, firmness by bending. On the procedure: as §1, §2
For comparison, similarly prepared apple slices were placed in one of several solutions that contained either: 4.3% ascorbic acid and 1.13% hydrated MgCO3, specifically 4MgCO3.Mg(OH)25H2O or a 5.0% w/w aqueous solution of calcium ascorbate dihydrate, having a pH of 7.2; or a 5.3% w/w solution, of 4.12% ascorbic acid and 1.17% calcium carbonate,; or 6% ascorbic acid having a pH of 2.3; or 48 g ascorbic acid, 48 g citric acid, 16 g CaCl2 and 48 g NaCl in 800 g water, with a pH of 1.2; or 6% w/w citric acid and 6% w/w ascorbic acid; or 4.64% sodium ascorbate having 4.13% ascorbic acid and 1.18% NaCo3.
Bramley apples were preserved with the fresh produce preservative as in Example 11a except that the preservative solution contained lithium ascorbate. The lithium ascorbate solution was prepared by adding 7.35 grams of lithium carbonate and 35 grams ascorbic acid to 800 grams water.
For comparison, apple slices were placed in one of several comparative solutions: a 5.0% w/w aqueous solution of calcium ascorbate dihydrate containing 42.5 grams of calcium ascorbate dihydrate and 800 grams water with a pH of 7; a 5.3% w/w solution of calcium ascorbate containing 44.94 grams of mixture of 9.95 grams calcium carbonate and 35 grams ascorbic acid in 800 grams water with a pH of 5.5; a comparative solution, containing 48 g ascorbic acid, 48 g citric acid, 16 g CaCl2, 48 g NaCl and 800 g water with a pH of 1.2; a comparative solution of sodium ascorbate containing 28.45 grams of sodium carbonate 35 grams ascorbic acid, 800 grams water having a pH of 6.8; a comparative solution of calcium ascorbate containing 8.75 grams of calcium carbonate, 35 grams ascorbic acid, and to 800 grams water; a comparative solution of calcium ascorbate containing 9.95 grams of calcium carbonate, 35 grams ascorbic acid, and 765 grams water; a comparative solution of magnesium ascorbate containing 9.66 grams of hydrated magnesium carbonate 4MgCO3.Mg(OH)25H2O, 35 grams ascorbic acid, 765 grams water, having a pH of 6.4; and a comparative solution of zinc ascorbate containing 35 grams ascorbic acid, 12.74 grams zinc carbonate and 765 grams water, with a pH of 5.5. The apple slices were evaluated on day five.

For the compound `O=C1O[C@H]([C@@H](O)CO)C([O-])=C1O.[Na+]` [Sodium Ascorbate, sodium ascorbate], the “Water Released” value is recorded as 6.58 g in the assay on Bramley apples [1] (4 hr at 4° C.); 6.74 g in the assay on Bramley apples [1] (28 hr at 4° C.); 6.67 g with Bramley apples [1] (52 hr at 4° C.); 4.87 g with Bramley apples [1] (94 hr at 4° C.); 4.08 g in the assay on Bramley apples [1] (191 hr at 4° C.); 3.77 g in the assay with Bramley apples [1] (335 hr at 4° C.). For the same compound, the Texture result with Bramley apples [2] (4 hr at 4° C.), in the assay on Bramley apples [2] (28 hr at 4° C.), with Bramley apples [2] (52 hr at 4° C.), in the assay on Bramley apples [2] (94 hr at 4° C.), with Bramley apples [2] (191 hr at 4° C.) and in the assay with Bramley apples [2] (Day 5) was “Firm” throughout. The “Appearance (visual inspection)” value with Bramley apples [2] (335 hr at 4° C.) was “Internal browning on some”. For the same compound, the Color result with Bramley apples [2] (Day 5) was “White”.
As to calcium ascorbate dihydrate, the “Water Released” value is on record as 6.84 g with Bramley apples [1] (4 hr at 4° C.); 5.88 g with Bramley apples [1] (28 hr at 4° C.); 5.56 g with Bramley apples [1] (52 hr at 4° C.); 4.00 g in the assay on Bramley apples [1] (94 hr at 4° C.); 2.67 g in the assay on Bramley apples [1] (191 hr at 4° C.); 1.33 g in the assay on Bramley apples [1] (335 hr at 4° C.). Further, the Texture result is on record as “Firm” in the assay on Bramley apples [2] (28 hr at 4° C.); “Firm” in the assay on Bramley apples [2] (52 hr at 4° C.); “Firm” in the assay on Bramley apples [2] (94 hr at 4° C.); “Firm” with Bramley apples [2] (191 hr at 4° C.); “Firm” in the assay with Bramley apples [2] (335 hr at 4° C.); “Very Firm” in the assay on Bramley apples [2] (Day 5). For the same compound, in the assay with Bramley apples [2] (335 hr at 4° C.), the “Appearance (visual inspection)” value was “Good condition”. In the assay with Bramley apples [2] (Day 5), the Color result is listed as “White”.
As for zinc ascorbate, in the assay with Bramley apples [2] (Day 5), the Color entry was “Brown” and the Texture result is on record as “Very Soft”.
Consider magnesium ascorbate, for which the “Water Released” value in the assay with Bramley apples [1] (4 hr at 4° C.) stood at 6.54 g; in the assay with Bramley apples [1] (28 hr at 4° C.), 7.07 g; with Bramley apples [1] (52 hr at 4° C.), 6.43 g; in the assay on Bramley apples [1] (94 hr at 4° C.) it was 4.75 g; with Bramley apples [1] (191 hr at 4° C.), 3.73 g; in the assay on Bramley apples [1] (335 hr at 4° C.), 2.17 g. The Texture result was “Firm” in the assay on Bramley apples [2] (28 hr at 4° C.); “Firm” in the assay with Bramley apples [2] (52 hr at 4° C.); “Firm” with Bramley apples [2] (94 hr at 4° C.); “Firm” in the assay on Bramley apples [2] (191 hr at 4° C.); “Firm and crisp” in the assay with Bramley apples [2] (335 hr at 4° C.); “Very Firm” in the assay on Bramley apples [2] (Day 5). Further, the “Appearance (visual inspection)” value in the assay with Bramley apples [2] (335 hr at 4° C.) is on record as “Good color”. Further, the Color result with Bramley apples [2] (Day 5) is reported as “White”.
